# Source: patent US20110224208A1, “NOVEL INHIBITORS OF FLAVIVIRUS REPLICATION” (KATHOLIEKE UNIVERSITEIT LEUVEN, K.U. LEUVEN R&D, priority 2008, published 2011)
# Read-outs that look alike come from different tables or passages of the source.
# Legend:
# [1] = tested on: HCV replicon I389luc-ubi-neo/NS3-3'/5.1; test: Anti-HCV replicon assay (luciferase activity) in Huh-5-2 cells; type: cell-based, Hepatitis C virus; details: Hepatitis C virus, concentration required to inhibit luciferase activity in the replicon system by 50%
# How it was run: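 Huh-5-2 cells carrying the luciferase HCV replicon, seeded 24 h, then exposed to serial compound dilutions without G418 for 72 h at 37° C, 5% CO2. Replication read as luciferase luminescence, expressed as percentage of untreated cultures; culture density measured in parallel by MTS.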
# [2] = Proliferation of exponentially growing Huh-5-2 cells (MTS method); details: human
# Description: Cells were seeded at a density of 7000 cells per well in 96 well View Plate™ (Packard) in medium containing the same components as described above, except for G418. Cells were allowed to adhere and proliferate for 24 hr. At that time, culture medium was removed and serial dilutions of the test compounds were added in culture medium lacking G418. Interferon alfa 2a (500 IU) was included as a positive control. Plates were further incubated at 37° C. and 5% CO2 for 72 hours. Replication of the HCV replicon in Huh-5 cells results in luciferase activity in the cells. Luciferase activity is measured by adding 50 μl of 1×Glo-lysis buffer (Promega) for 15 minutes followed by 50 ul of the Steady-Glo Luciferase assay reagent (Promega). Luciferase activity is measured with a luminometer and the signal in each individual well is expressed as a percentage of the untreated cultures. […] Instead the density of the culture is measured by means of the MTS method (Promega).
# [3] = CC50, concentration required to inhibit the proliferation of exponentially growing Huh-5-2 cells by 50%, Table 2
SMILES,"IC50 ([1]; Huh-5-2, 72 h)","CC50 at 72 h [2, 3]","IC50 ([1]; 72 hours, read-out: IC50)",CC50 at 72 h ([2]; Huh-5-2 cells (Huh-5 cell line with persistent HCV replicon))
"COCCN1C(=O)c2ccccc2C(C(=O)Nc2ccc(Cl)c(OC)c2)C1c1cccs1 (centres unmarked) [C111, N-(4-chloro-3-methoxyphenyl)-2-(2-methoxyethyl)-1-oxo-3-(thiophen-2-yl)-1,2,3,4-tetrahydroisoquinoline-4-carboxamide]",0.17 µg/mL,86.7 µg/mL,–,–
"COCCN1C(=O)c2ccccc2C(C(=O)Nc2cccc(OC)c2)C1c1cccnc1 (centres unmarked) [C53, 2-(2-Methoxyethyl)-N-(3-methoxyphenyl)-1-oxo-3-(pyridin-3-yl)-1,2,3,4-tetrahydroisoquinoline-4-carboxamide]",52.9 µg/mL,80.8 µg/mL,–,–
"COCCN1C(=O)c2ccccc2C(C(=O)Nc2ccc3[nH]c(C)cc3c2)C1c1cccs1 (centres unmarked) [C131, 2-(2-methoxyethyl)-N-(2-methyl-1H-indol-5-yl)-1-oxo-3-(thiophen-2-yl)-1,2,3,4-tetrahydroisoquinoline-4-carboxamide]",1.12 µg/mL,69.7 µg/mL,–,–
"COCCN1C(=O)c2ccccc2C(C(=O)Nc2cc(C)no2)C1c1cccs1 (centres unmarked) [C127, 2-(2-methoxyethyl)-N-(3-methylisoxazol-5-yl)-1-oxo-3-(thiophen-2-yl)-1,2,3,4-tetrahydroisoquinoline-4-carboxamide]",10.3 µg/mL,87.2 µg/mL,–,–
"CCOCCN1C(=O)c2ccccc2C(C(=O)Nc2cccc(OC)c2)C1c1cccs1 (centres unmarked) [C65, 2-(2-Ethoxyethyl)-N-(3-methoxyphenyl)-1-oxo-3-(thiophen-2-yl)-1,2,3,4-tetrahydroisoquinoline-4-carboxamide]",1.76 µg/mL,90.2 µg/mL,–,–
"COCCN1C(=O)c2ccccc2C(C(=O)Nc2ccc(C(=O)NCc3ccccc3)cc2)C1c1cccs1 (centres unmarked) [C137, N-(4-(benzylcarbamoyl)phenyl)-2-(2-methoxyethyl)-1-oxo-3-(thiophen-2-yl)-1,2,3,4-tetrahydroisoquinoline-4-carboxamide]",0.032 µg/mL,81.1 µg/mL,–,–
"COCCN1C(=O)c2ccccc2C(C(=O)Nc2ccc3c(c2)COC3)C1c1cccs1 (centres unmarked) [C190, N-(1,3-dihydroisobenzofuran-5-yl)-2-(2-methoxyethyl)-1-oxo-3-(thiophen-2-yl)-1,2,3,4-tetrahydroisoquinoline-4-carboxamide]",0.14 µg/mL,75.9 µg/mL,–,–
"COCCN1C(=O)c2ccccc2C(C(=O)Nc2cccc(Cc3ccccc3)c2)C1c1cccs1 (centres unmarked) [C89, N-(3-benzylphenyl)-2-(2-methoxyethyl)-1-oxo-3-(thiophen-2-yl)-1,2,3,4-tetrahydroisoquinoline-4-carboxamide]",0.11 µg/mL,0.62 µg/mL,–,–
"COCCN1C(=O)c2ccccc2C(C(=O)NCc2cccc3ccccc23)C1c1cccs1 (centres unmarked) [C72, 2-(2-methoxyethyl)-N-(naphthalen-1-ylmethyl)-1-oxo-3-(thiophen-2-yl)-1,2,3,4-tetrahydroisoquinoline-4-carboxamide]",35.8 µg/mL,71.2 µg/mL,–,–
"COCCN1C(=O)c2ccccc2C(C(=O)Nc2cccc(NC(C)=O)c2)C1c1cccs1 (centres unmarked) [C108, N-(3-acetamidophenyl)-2-(2-methoxyethyl)-1-oxo-3-(thiophen-2-yl)-1,2,3,4-tetrahydroisoquinoline-4-carboxamide]",3.71 µg/mL,77.3 µg/mL,–,–
"COCCN1C(=O)c2ccccc2C(C(=O)Nc2ccc(-n3cncn3)cc2)C1c1cccs1 (centres unmarked) [C167, N-(4-(1H-1,2,4-triazol-1-yl)phenyl)-2-(2-methoxyethyl)-1-oxo-3-(thiophen-2-yl)-1,2,3,4-tetrahydroisoquinoline-4-carboxamide]",0.12 µg/mL,60 µg/mL,–,–
"CCN1C(=O)c2ccccc2C(C(=O)Nc2cccc(OC)c2)C1c1cccs1 (centres unmarked) [C5, 2-Ethyl-N-(3-methoxyphenyl)-1-oxo-3-(thiophen-2-yl)-1,2,3,4-tetrahydroisoquinoline-4-carboxamide]",3.6 µg/mL,33.4 µg/mL,–,–
"COCCN1C(=O)c2c(ccc(C)c2F)C(C(=O)Nc2cccc(OC)c2)C1c1cccs1 (centres unmarked) [C93, 8-fluoro-2-(2-methoxyethyl)-N-(3-methoxyphenyl)-7-methyl-1-oxo-3-(thiophen-2-yl)-1,2,3,4-tetrahydroisoquinoline-4-carboxamide]",0.17 µg/mL,32.9 µg/mL,–,–
"COCCN1C(=O)c2ccccc2C(C(=O)Nc2cc(C(=O)OC)n(C)c2)C1c1cccs1 (centres unmarked) [C209, methyl 4-(2-(2-methoxyethyl)-1-oxo-3-(thiophen-2-yl)-1,2,3,4-tetrahydroisoquinoline-4-carboxamido)-1-methyl-1H-pyrrole-2-carboxylate]",0.11 µg/mL,57.8 µg/mL,–,–
"COCCN1C(=O)c2ccccc2C(C(=O)Nc2cccc(OC)c2)C1c1csc(C)n1 (centres unmarked) [C98, 2-(2-methoxyethyl)-N-(3-methoxyphenyl)-3-(2-methylthiazol-4-yl)-1-oxo-1,2,3,4-tetrahydroisoquinoline-4-carboxamide]",50.3 µg/mL,80.9 µg/mL,–,–
"COCCN1C(=O)c2ccccc2C(C(=O)Nc2cccc(OC)c2)C1C=C(C)C (centres unmarked) [C120, 2-(2-methoxyethyl)-N-(3-methoxyphenyl)-3-(2-methylprop-1-enyl)-1-oxo-1,2,3,4-tetrahydroisoquinoline-4-carboxamide]",3.28 µg/mL,95.4 µg/mL,–,–
"COCCN1C(=O)c2ccccc2C(C(=O)Nc2ccc3c(ccn3C)c2)C1c1cccs1 (centres unmarked) [C123, 2-(2-methoxyethyl)-N-(1-methyl-1H-indol-5-yl)-1-oxo-3-(thiophen-2-yl)-1,2,3,4-tetrahydroisoquinoline-4-carboxamide]",0.25 µg/mL,87.9 µg/mL,–,–
"COCCN1C(=O)c2ccccc2C(C(=O)Nc2nc3ccc(Cl)cc3s2)C1c1cccs1 (centres unmarked) [C202, N-(6-chlorobenzo[d]thiazol-2-yl)-2-(2-methoxyethyl)-1-oxo-3-(thiophen-2-yl)-1,2,3,4-tetrahydroisoquinoline-4-carboxamide]",0.17 µg/mL,7.89 µg/mL,–,–
"COCCn1c(-c2cccs2)c(C(=O)Nc2cccc(OC)c2)c2ccccc2c1=O [C32, 2-(2-methoxyethyl)-N-(3-methoxyphenyl)-1-oxo-3-(thiophen-2-yl)-1,2-dihydroisoquinoline-4-carboxamide]",37.3 µg/mL,73.7 µg/mL,–,–
"COCCN1C(=O)c2ccccc2C(C(=O)Nc2nc3ccc(OC)cc3s2)C1c1ccc(F)cc1 (centres unmarked) [C273, 3-(4-fluorophenyl)-N-(6-methoxybenzo[d]thiazol-2-yl)-2-(2-methoxyethyl)-1-oxo-1,2,3,4-tetrahydroisoquinoline-4-carboxamide]",–,–,1.4 µg/mL,14.9 µg/mL
"COCCN1C(=O)c2cccc(C)c2C(C(=O)Nc2cccc(OC)c2)C1c1cccs1 (centres unmarked) [C39, 2-(2-Methoxyethyl)-N-(3-methoxyphenyl)-5-methyl-1-oxo-3-(thiophen-2-yl)-1,2,3,4-tetrahydroisoquinoline-4-carboxamide]",1.3 µg/mL,80 µg/mL,–,–
"COCCN1C(=O)c2ccccc2C(C(=O)Nc2cc(C(C)(C)C)[nH]n2)C1c1cccs1 (centres unmarked) [C185, N-(5-tert-butyl-1H-pyrazol-3-yl)-2-(2-methoxyethyl)-1-oxo-3-(thiophen-2-yl)-1,2,3,4-tetrahydroisoquinoline-4-carboxamide]",10.4 µg/mL,19 µg/mL,–,–
"COCCN1C(=O)c2ccccc2C(C(=O)Nc2ccc3ncsc3c2)C1c1cccs1 (centres unmarked) [C170, N-(benzo[d]thiazol-6-yl)-2-(2-methoxyethyl)-1-oxo-3-(thiophen-2-yl)-1,2,3,4-tetrahydroisoquinoline-4-carboxamide]",0.12 µg/mL,37.7 µg/mL,–,–
"COCCN1C(=O)c2ccccc2C(C(=O)Nc2cccc(Cn3ccnc3)c2)C1c1cccs1 (centres unmarked) [C212, N-(3-((1H-imidazol-1-yl)methyl)phenyl)-2-(2-methoxyethyl)-1-oxo-3-(thiophen-2-yl)-1,2,3,4-tetrahydroisoquinoline-4-carboxamide]",0.16 µg/mL,52.6 µg/mL,–,–
"COCCCN1C(=O)c2ccccc2C(C(=O)Nc2cccc(OC)c2)C1c1cccs1 (centres unmarked) [C13, N-(3-methoxyphenyl)-2-(3-methoxypropyl)-1-oxo-3-(thiophen-2-yl)-1,2,3,4-tetrahydroisoquinoline-4-carboxamide]",2.11 µg/mL,33.3 µg/mL,–,–
"COCCN1C(=O)c2cccc(OC)c2C(C(=O)Nc2cccc(OC)c2)C1c1cccs1 (centres unmarked) [C148, 5-methoxy-2-(2-methoxyethyl)-N-(3-methoxyphenyl)-1-oxo-3-(thiophen-2-yl)-1,2,3,4-tetrahydroisoquinoline-4-carboxamide]",24.6 µg/mL,52.1 µg/mL,–,–
"COCCN1C(=O)c2ccccc2C(C(=O)Nc2cccc(OC)c2)C1c1nccs1 (centres unmarked) [C102, 2-(2-methoxyethyl)-N-(3-methoxyphenyl)-1-oxo-3-(thiazol-2-yl)-1,2,3,4-tetrahydroisoquinoline-4-carboxamide]",26.8 µg/mL,72.8 µg/mL,–,–
"COCCN1C(=O)c2ccccc2C(C(=O)Nc2cccc(OC)c2)C1c1ccc[nH]1 (centres unmarked) [C29, 2-(2-Methoxyethyl)-N-(3-methoxyphenyl)-1-oxo-3-(1H-pyrrol-2-yl)-1,2,3,4-tetrahydroisoquinoline-4-carboxamide]",14.8 µg/mL,54.5 µg/mL,–,–
